Test results: PubChem BioAssay AID1963847 (Molecular Pharmacology Branch, DTP, NCI, 2024)

Tested on: 415267-285-R-J2-PDC complex spheroid viability
Assay: Anticancer human tumor 415267-285-R-J2-PDC patient-derived breast carcinoma cell line growth inhibition [POLQ]
Settings: for IC50: curve of first compound; for viability, T/C: stronger effect = lower value
Summary of the method: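 Patient-derived tumour cells were co-cultured with HUVEC and mesenchymal stem cells as multicellular spheroids at 37 °C. They were treated with POLQ inhibitors (novobiocin, ART-558, RP6685) alone or combined with other agents. Top concentrations were at or near clinical Cmax (otherwise 10 microM; SN-38 at 1 microM), decreasing in half-log steps.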

[1] = second compound 0.0316 µM, first compound 0.00316 µM
[2] = second compound 0.0316 µM, first compound 0.01 µM
[3] = second compound 0.0316 µM, first compound 0.0316 µM
[4] = second compound 0.0316 µM, first compound 0.1 µM
[5] = second compound 0.0316 µM, first compound 0.316 µM
[6] = second compound 0.0316 µM, first compound 1 µM
[7] = second compound 0.1 µM, first compound 0.00316 µM
[8] = second compound 0.1 µM, first compound 0.01 µM
[9] = second compound 0.1 µM, first compound 0.0316 µM
[10] = second compound 0.1 µM, first compound 0.1 µM
[11] = second compound 0.1 µM, first compound 0.316 µM
[12] = second compound 0.1 µM, first compound 1 µM
[13] = second compound 0.316 µM, first compound 0.00316 µM
[14] = second compound 0.316 µM, first compound 0.01 µM
[15] = second compound 0.316 µM, first compound 0.0316 µM
[16] = second compound 0.316 µM, first compound 0.1 µM
[17] = second compound 0.316 µM, first compound 0.316 µM
[18] = second compound 0.316 µM, first compound 1 µM
[19] = second compound 1 µM, first compound 0.00316 µM
[20] = second compound 1 µM, first compound 0.01 µM
[21] = second compound 1 µM, first compound 0.0316 µM
[22] = second compound 1 µM, first compound 0.1 µM
[23] = second compound 1 µM, first compound 0.316 µM
[24] = second compound 1 µM, first compound 1 µM
[25] = second compound 3.16 µM, first compound 0.00316 µM
[26] = second compound 3.16 µM, first compound 0.01 µM
[27] = second compound 3.16 µM, first compound 0.0316 µM
[28] = second compound 3.16 µM, first compound 0.1 µM
[29] = second compound 3.16 µM, first compound 0.316 µM
[30] = second compound 3.16 µM, first compound 1 µM
[31] = second compound 10 µM, first compound 0.00316 µM
[32] = second compound 10 µM, first compound 0.01 µM
[33] = second compound 10 µM, first compound 0.0316 µM
[34] = second compound 10 µM, first compound 0.1 µM
[35] = second compound 10 µM, first compound 0.316 µM
[36] = second compound 10 µM, first compound 1 µM
[37] = second compound 0.0316 µM, first compound 3.16 µM
[38] = second compound 0.0316 µM, first compound 10 µM
[39] = second compound 0.1 µM, first compound 3.16 µM
[40] = second compound 0.1 µM, first compound 10 µM
[41] = second compound 0.316 µM, first compound 3.16 µM
[42] = second compound 0.316 µM, first compound 10 µM
[43] = second compound 1 µM, first compound 3.16 µM
[44] = second compound 1 µM, first compound 10 µM
[45] = second compound 3.16 µM, first compound 3.16 µM
[46] = second compound 3.16 µM, first compound 10 µM
[47] = second compound 10 µM, first compound 3.16 µM
[48] = second compound 10 µM, first compound 10 µM
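Also: spheroids exposed to compounds for one week before readout.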
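For viability, T/C in this document: luminescence used as stand-in measure of viable cells; 100% = DMSO vehicle control viability.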

## C=CCn1c(=O)c2cnc(Nc3ccc(N4CCN(C)CC4)cc3)nc2n1-c1cccc(C(C)(C)O)n1 + COC1C(OC(N)=O)C(O)C(Oc2ccc3c(O)c(NC(=O)c4ccc(O)c(CC=C(C)C)c4)c(=O)oc3c2C)OC1(C)C
Second compound 0.0316 µM
  IC50: 347 nM
Second compound 0.1 µM
  IC50: 269 nM
Second compound 0.316 µM
  IC50: 262 nM
Second compound 1 µM
  IC50: 269 nM
Second compound 3.16 µM
  IC50: 249 nM
Second compound 10 µM
  IC50: 267 nM
[1]
  viability, T/C: 106%
[2]
  viability, T/C: 96.1%
[3]
  viability, T/C: 105%
[4]
  viability, T/C: 101%
[5]
  viability, T/C: 53.7%
[6]
  viability, T/C: 7.91%
[7]
  viability, T/C: 96%
[8]
  viability, T/C: 95.3%
[9]
  viability, T/C: 101%
[10]
  viability, T/C: 99.1%
[11]
  viability, T/C: 42.1%
[12]
  viability, T/C: 7.89%
[13]
  viability, T/C: 114%
[14]
  viability, T/C: 110%
[15]
  viability, T/C: 100%
[16]
  viability, T/C: 116%
[17]
  viability, T/C: 38.1%
[18]
  viability, T/C: 7.25%
[19]
  viability, T/C: 105%
[20]
  viability, T/C: 119%
[21]
  viability, T/C: 95.8%
[22]
  viability, T/C: 89.9%
[23]
  viability, T/C: 42.9%
[24]
  viability, T/C: 7.39%
[25]
  viability, T/C: 111%
[26]
  viability, T/C: 101%
[27]
  viability, T/C: 103%
[28]
  viability, T/C: 95.9%
[29]
  viability, T/C: 38.1%
[30]
  viability, T/C: 8.1%
[31]
  viability, T/C: 112%
[32]
  viability, T/C: 93.9%
[33]
  viability, T/C: 106%
[34]
  viability, T/C: 97.9%
[35]
  viability, T/C: 41.7%
[36]
  viability, T/C: 9.2%

## COc1cc(C2c3cc4c(cc3C(OC3OC5COC(C)OC5C(O)C3O)C3COC(=O)C23)OCO4)cc(OC)c1O (stereo not drawn) + COC1C(OC(N)=O)C(O)C(Oc2ccc3c(O)c(NC(=O)c4ccc(O)c(CC=C(C)C)c4)c(=O)oc3c2C)OC1(C)C
Second compound 0.0316 µM
  IC50: 155 nM
Second compound 0.1 µM
  IC50: 156 nM
Second compound 0.316 µM
  IC50: 149 nM
Second compound 1 µM
  IC50: 153 nM
Second compound 3.16 µM
  IC50: 166 nM
Second compound 10 µM
  IC50: 163 nM
[3]
  viability, T/C: 88.3%
[4]
  viability, T/C: 72.4%
[5]
  viability, T/C: 13.8%
[6]
  viability, T/C: 8.42%
[37]
  viability, T/C: 5.21%
[38]
  viability, T/C: 6.94%
[9]
  viability, T/C: 97.4%
[10]
  viability, T/C: 72.1%
[11]
  viability, T/C: 14.5%
[12]
  viability, T/C: 8.54%
[39]
  viability, T/C: 5.95%
[40]
  viability, T/C: 5.76%
[15]
  viability, T/C: 97.7%
[16]
  viability, T/C: 69.6%
[17]
  viability, T/C: 12.8%
[18]
  viability, T/C: 8.42%
[41]
  viability, T/C: 5.87%
[42]
  viability, T/C: 6.37%
[21]
  viability, T/C: 98.3%
[22]
  viability, T/C: 71.6%
[23]
  viability, T/C: 13.1%
[24]
  viability, T/C: 7.07%
[43]
  viability, T/C: 6.69%
[44]
  viability, T/C: 5.99%
[27]
  viability, T/C: 87.1%
[28]
  viability, T/C: 75.9%
[29]
  viability, T/C: 17%
[30]
  viability, T/C: 8.05%
[45]
  viability, T/C: 5.46%
[46]
  viability, T/C: 6.77%
[33]
  viability, T/C: 101%
[34]
  viability, T/C: 75.6%
[35]
  viability, T/C: 15.3%
[36]
  viability, T/C: 8.14%
[47]
  viability, T/C: 6.45%
[48]
  viability, T/C: 5.77%

## CCc1cc2c(N3CCc4c(cc(Cn5ccnc5)cc4-c4cn(C)nc4C(F)(F)F)C3=O)ccnc2c(OC)n1 + COC1C(OC(N)=O)C(O)C(Oc2ccc3c(O)c(NC(=O)c4ccc(O)c(CC=C(C)C)c4)c(=O)oc3c2C)OC1(C)C
Second compound 0.0316 µM
  IC50: > 10000 nM
Second compound 0.1 µM
  IC50: > 10000 nM
Second compound 0.316 µM
  IC50: > 10000 nM
Second compound 1 µM
  IC50: > 10000 nM
Second compound 3.16 µM
  IC50: > 10000 nM
Second compound 10 µM
  IC50: > 10000 nM
[3]
  viability, T/C: 92.8%
[4]
  viability, T/C: 74.9%
[5]
  viability, T/C: 88%
[6]
  viability, T/C: 91.1%
[37]
  viability, T/C: 83%
[38]
  viability, T/C: 66.3%
[9]
  viability, T/C: 89.4%
[10]
  viability, T/C: 87%
[11]
  viability, T/C: 83.2%
[12]
  viability, T/C: 83.3%
[39]
  viability, T/C: 77.6%
[40]
  viability, T/C: 67.6%
[15]
  viability, T/C: 89.8%
[16]
  viability, T/C: 90.9%
[17]
  viability, T/C: 71.5%
[18]
  viability, T/C: 81%
[41]
  viability, T/C: 75.3%
[42]
  viability, T/C: 71.8%
[21]
  viability, T/C: 88.6%
[22]
  viability, T/C: 89.6%
[23]
  viability, T/C: 79.5%
[24]
  viability, T/C: 74.9%
[43]
  viability, T/C: 79.5%
[44]
  viability, T/C: 63.2%
[27]
  viability, T/C: 97.4%
[28]
  viability, T/C: 83.8%
[29]
  viability, T/C: 78.8%
[30]
  viability, T/C: 84.5%
[45]
  viability, T/C: 73.5%
[46]
  viability, T/C: 70.5%
[33]
  viability, T/C: 99.2%
[34]
  viability, T/C: 89.8%
[35]
  viability, T/C: 84.9%
[36]
  viability, T/C: 77.5%
[47]
  viability, T/C: 73.6%
[48]
  viability, T/C: 72.2%

## CC[C@@]1(O)C(=O)OCc2c1cc1n(c2=O)Cc2cc3c(CN(C)C)c(O)ccc3nc2-1 + Cc1cccc(N(C)C(=O)C2C(O)CCN2c2nc(C)cc(C(F)(F)F)c2C#N)c1
Second compound 0.0316 µM
  IC50: 19.8 nM
Second compound 0.1 µM
  IC50: 18.8 nM
Second compound 0.316 µM
  IC50: 20.6 nM
Second compound 1 µM
  IC50: 18.9 nM
Second compound 3.16 µM
  IC50: 18.5 nM
Second compound 10 µM
  IC50: 18.2 nM
Second compound 0.0316 µM, first compound 0.000316 µM
  viability, T/C: 90.7%
Second compound 0.0316 µM, first compound 0.001 µM
  viability, T/C: 102%
[1]
  viability, T/C: 103%
[2]
  viability, T/C: 90.9%
[3]
  viability, T/C: 22%
[4]
  viability, T/C: 7.7%
Second compound 0.1 µM, first compound 0.000316 µM
  viability, T/C: 96.9%
Second compound 0.1 µM, first compound 0.001 µM
  viability, T/C: 96.9%
[7]
  viability, T/C: 101%
[8]
  viability, T/C: 86.5%
[9]
  viability, T/C: 19.9%
[10]
  viability, T/C: 7.92%
Second compound 0.316 µM, first compound 0.000316 µM
  viability, T/C: 102%
Second compound 0.316 µM, first compound 0.001 µM
  viability, T/C: 98%
[13]
  viability, T/C: 102%
[14]
  viability, T/C: 104%
[15]
  viability, T/C: 19.2%
[16]
  viability, T/C: 9.41%
Second compound 1 µM, first compound 0.000316 µM
  viability, T/C: 101%
Second compound 1 µM, first compound 0.001 µM
  viability, T/C: 96.4%
[19]
  viability, T/C: 107%
[20]
  viability, T/C: 89.5%
[21]
  viability, T/C: 18.1%
[22]
  viability, T/C: 7.15%
Second compound 3.16 µM, first compound 0.000316 µM
  viability, T/C: 98.5%
Second compound 3.16 µM, first compound 0.001 µM
  viability, T/C: 102%
[25]
  viability, T/C: 92%
[26]
  viability, T/C: 91.7%
[27]
  viability, T/C: 13.8%
[28]
  viability, T/C: 8.04%
Second compound 10 µM, first compound 0.000316 µM
  viability, T/C: 108%
Second compound 10 µM, first compound 0.001 µM
  viability, T/C: 96.2%
[31]
  viability, T/C: 104%
[32]
  viability, T/C: 85.6%
[33]
  viability, T/C: 17.1%
[34]
  viability, T/C: 9.1%
